Results published in publication PMC12480751, “A quantitative high-throughput screening pipeline to identify small molecule inhibitors of Chikungunya nsP2 protease” (Scientific Reports, 2025).

Tests used:
CHIKV nsP2pro [1] = target: T1, CHIKV nsP2pro (Chikungunya virus, UniProt Q8JUX6); test: FRET-based nsP2pro proteolytic assay with peptide 2 (nsp3/4 site), 1,536-well qHTS; format: biochemical
SNB19 cells = test: CellTiter-Glo cell viability assay of SNB19 cells; format: cell-based, human; conditions: 48 h
Method: Cells were harvested in growth media and dispensed (5 µL /1,000 cells/well) onto 1536-well white plates (Aurora #EWB041000A) using a Multidrop Combi. Control and test compounds were added (25 nL) using an Echo 650 liquid handler. Plates were incubated for 48 h at 37 °C and 5% CO2 and then equilibrated to room temperature prior to addition of 4 µL /well of CellTiter-Glo (Promega) using a Multidrop Combi. Plates were subsequently incubated for 15 min at room temperature and centrifuged for 1 min at 1000 rpm. Luminescence was read on a ViewLux imager equipped with clear filters.

nsP2 protease = target: T2, nsP2 protease (Chikungunya virus, UniProt Q8JUX6); test: cell-based; format: cell-based
T2 construct: expressed in transfected cells; host or cells: HEK293T (the results text says HEK293), transient co-transfection in pcDNA3.1(+)
T2 sequence (Q8JUX6 755-1333 limits assumed): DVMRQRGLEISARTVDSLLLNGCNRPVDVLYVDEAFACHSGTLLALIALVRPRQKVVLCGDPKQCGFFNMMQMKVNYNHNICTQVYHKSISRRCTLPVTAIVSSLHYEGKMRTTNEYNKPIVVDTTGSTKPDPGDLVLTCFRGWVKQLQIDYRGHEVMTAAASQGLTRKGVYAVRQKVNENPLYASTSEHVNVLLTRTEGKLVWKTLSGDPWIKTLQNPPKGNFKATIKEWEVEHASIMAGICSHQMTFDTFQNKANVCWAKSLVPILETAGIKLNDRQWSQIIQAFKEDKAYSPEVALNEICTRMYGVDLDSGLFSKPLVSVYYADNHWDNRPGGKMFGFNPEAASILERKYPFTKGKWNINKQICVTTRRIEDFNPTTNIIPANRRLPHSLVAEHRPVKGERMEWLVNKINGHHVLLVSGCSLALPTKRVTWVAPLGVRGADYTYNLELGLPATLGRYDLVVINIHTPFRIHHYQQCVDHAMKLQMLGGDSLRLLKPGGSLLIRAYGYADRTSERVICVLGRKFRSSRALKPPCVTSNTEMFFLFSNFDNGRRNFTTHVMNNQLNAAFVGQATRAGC

full-length nsP2 = target: T3, full-length nsP2 (Chikungunya virus, UniProt Q8JUX6, C1333A); test: FRET-based full-length nsP2 proteolytic assay with peptide 2; format: biochemical; conditions: full-length nsP2 and peptide 2; read-out: IC50, inhibition of nsp3/4 cleavage by full-length enzyme
T3 sequence (Q8JUX6 536-1333 C1333A): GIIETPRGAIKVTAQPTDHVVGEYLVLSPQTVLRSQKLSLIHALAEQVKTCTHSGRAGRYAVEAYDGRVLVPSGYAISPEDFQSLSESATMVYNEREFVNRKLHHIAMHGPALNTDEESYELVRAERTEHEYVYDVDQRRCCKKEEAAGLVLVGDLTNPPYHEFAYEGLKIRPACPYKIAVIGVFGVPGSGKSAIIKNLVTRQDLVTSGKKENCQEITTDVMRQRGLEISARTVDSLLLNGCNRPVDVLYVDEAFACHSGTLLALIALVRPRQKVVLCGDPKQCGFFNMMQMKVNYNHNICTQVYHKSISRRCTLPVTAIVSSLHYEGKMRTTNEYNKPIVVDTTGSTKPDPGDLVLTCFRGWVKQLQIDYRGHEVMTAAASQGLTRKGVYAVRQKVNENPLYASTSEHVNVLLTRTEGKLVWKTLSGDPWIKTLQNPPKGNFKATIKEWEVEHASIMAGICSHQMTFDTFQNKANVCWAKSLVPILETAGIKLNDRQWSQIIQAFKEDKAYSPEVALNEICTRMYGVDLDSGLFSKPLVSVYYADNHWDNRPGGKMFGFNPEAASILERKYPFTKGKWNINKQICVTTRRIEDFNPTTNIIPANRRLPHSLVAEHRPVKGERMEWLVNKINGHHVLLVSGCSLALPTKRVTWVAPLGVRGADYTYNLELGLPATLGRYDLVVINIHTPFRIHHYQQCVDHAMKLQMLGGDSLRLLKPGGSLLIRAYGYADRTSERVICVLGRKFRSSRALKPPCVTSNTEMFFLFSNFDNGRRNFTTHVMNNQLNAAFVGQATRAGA
Method: (§1) To gain further insight on their therapeutic potential, we investigated whether confirmed hits inhibit proteolytic activity in the context of full-length nsP2 protein rather than isolated protease domain[13]. To test the set of confirmed inhibitors, we chose peptide 2 substrate and full-length enzyme concentrations of 1 μM and 150 nM, respectively. Compound activity correlated well between nsP2pro and full-length enzyme (Fig. 2A). Additionally, we tested whether hits inhibit proteolysis of the nsP2/3 site.
All reactions were incubated at room temperature (RT).
Two point five μM peptide 2 substrate and 150 nM nsP2pro were selected to run the assay into 1536-well plate format. ZnAc was used as a positive control in the assay (50 µM). […] For primary screens, compounds were tested at 7 concentrations, 1:3 dilution points ranging from 25 µM to 34 nM. […] Four µL nsP2pro enzyme mix in assay buffer (10 mM Tris⋅HCl pH 8.0 with 0.01% Tween 20) was dispensed into the plate using a BioRAPTR FRD liquid dispenser (Beckman Coulter). […] After 1 h, plates were immediately read on a ViewLux high-throughput CCD imager (Exposure = 10 s, Gain = High, Speed = Slow, Binning = 2X). The above assay was also incorporated in the NCATS HTS facility, which allowed for robotic liquid and compound dispensing, microplate handling, and fluorescence reading. […]

CHIKV nsP2pro [2] = target: T1, CHIKV nsP2pro; test: FRET-based nsP2pro proteolytic assay with peptide 3 (nsp2/3 site); format: biochemical; conditions: nsP2pro and peptide 3; read-out: IC50, inhibition of cleavage of nsp2/3 peptide by nsp2pro
Method: as §1
Two point five μM peptide 2 substrate and 150 nM nsP2pro were selected to run the assay into 1536-well plate format. ZnAc was used as a positive control in the assay (50 µM). […] For primary screens, compounds were tested at 7 concentrations, 1:3 dilution points ranging from 25 µM to 34 nM. […] Four µL nsP2pro enzyme mix in assay buffer (10 mM Tris⋅HCl pH 8.0 with 0.01% Tween 20) was dispensed into the plate using a BioRAPTR FRD liquid dispenser (Beckman Coulter). The plate was incubated at RT (protected from light) for 15 min before addition of 4 µL substrate in assay buffer. After 1 h, plates were immediately read on a ViewLux high-throughput CCD imager (Exposure = 10 s, Gain = High, Speed = Slow, Binning = 2X). The above assay was also incorporated in the NCATS HTS facility, which allowed for robotic liquid and compound dispensing, microplate handling, and fluorescence reading. […]

CHIKV = tested on: CHIKV; design: method as in PMID 30018455; conditions: cited from earlier work

Structure (SMILES): CC(C)n1nc(C#Cc2ccccc2)c2c(N)ncnc21 [SPP 86]
- Enzymatic % Efficacy (CHIKV nsP2pro [1]; nsP2pro biochemical assay, 13 cell-active hits): -114.8%
- IC50 (CHIKV nsP2pro [1]; nsP2pro biochemical assay, 13 cell-active hits, read-out: Enzymatic IC50): 8 µM
- CC50 (SNB19 cells): 16.4 µM
- Cell-based % Efficacy (nsP2 protease): 146.3%
- AC50 (nsP2 protease; read-out: Cell-based AC50): 18.3 µM

Structure (SMILES): CC(=O)[O-].CC(=O)[O-].[Zn+2] [ZnAc, Zinc acetate]
- IC50 (full-length nsP2): 0.137 ± 0.011 µM
- IC50 (CHIKV nsP2pro [1]; nsP2pro and peptide 2, read-out: IC50, inhibition of nsp3/4 cleavage by nsP2pro): 0.192 ± 0.012 µM
- IC50 (CHIKV nsP2pro [2]): 0.685 ± 0.077 µM
- concentrations effective in preventing CHIKV viral infection (CHIKV): higher than 60 µM
- effect on Nluc reporter signal in cellular nsp2 proteolytic assay (nsP2 protease): did not increase Nluc reporter signal
